These results are taken from ChEMBL document CHEMBL1128936, “Protein-ligand interactions. 6 nicotinic acetylcholine receptor agonist activity of isoquinoline alkaloids” (Bioorg Med Chem Lett, 1996).

Assay [1] has as its target T1, Acetylcholine receptor subunit delta (Torpedo californica) (UniProt P02718).
T1 sequence (whole entry): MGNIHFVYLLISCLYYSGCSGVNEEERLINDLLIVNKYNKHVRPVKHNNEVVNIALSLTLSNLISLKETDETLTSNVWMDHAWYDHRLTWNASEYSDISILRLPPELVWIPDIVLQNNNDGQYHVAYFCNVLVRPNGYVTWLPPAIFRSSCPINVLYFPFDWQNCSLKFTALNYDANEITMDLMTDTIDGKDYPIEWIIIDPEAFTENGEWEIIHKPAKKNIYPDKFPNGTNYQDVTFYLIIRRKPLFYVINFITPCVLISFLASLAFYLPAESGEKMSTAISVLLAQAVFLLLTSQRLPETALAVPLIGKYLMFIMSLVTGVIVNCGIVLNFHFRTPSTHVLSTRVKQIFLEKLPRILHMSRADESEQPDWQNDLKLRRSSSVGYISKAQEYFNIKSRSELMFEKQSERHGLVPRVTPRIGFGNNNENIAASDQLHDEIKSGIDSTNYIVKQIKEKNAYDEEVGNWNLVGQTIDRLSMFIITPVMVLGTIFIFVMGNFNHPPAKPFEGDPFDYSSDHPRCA
Nature of the assay: Compound was tested for its binding affinity against nicotinic acetylcholine receptor by fluorimetry assay. Particulars: torpedo fuscomaculata.

Assay [2] concerns the target T1, Acetylcholine receptor subunit delta (Torpedo californica). The experiment in a line: Compound was tested for its binding affinity against nicotinic acetylcholine receptor by spectrometry assay. Particulars: torpedo fuscomaculata.

Several values for one entry are separate records, joined by “and”; a condition that tells them apart may be missing. Identical values can stand only once.

In assay [1], `c1ccc2cnccc2c1` had a Bmax of 0.31 µM, a Kd1 of 3.1 µM and a Kd2 of 49 µM. In assay [2], this molecule returned a Bmax of 1.86 µM, a Kd1 of 3.3 µM and a Kd2 of 51.6 µM.
For the molecule `COc1ccc2cc3[n+](cc2c1OC)CCc1cc2c(cc1-3)OCO2`, in assay [1], the Bmax turned out to be 0.31 µM and the Kd1 is 0.77 µM. In assay [2], the Bmax came to 2.14 µM; the Kd1 is 0.84 µM; the Kd2 was 27 µM and 34 µM.
Regarding `COc1cc2c3cc1Oc1cc(ccc1O)C[C@@H]1c4c(cc(OC)c(O)c4Oc4ccc(cc4)C[C@@H]3N(C)CC2)CC[N+]1(C)C`, in assay [1], the Kd1 turned out to be 0.05 µM and the Kd2 worked out at 11.4 µM. In assay [2], this molecule yielded a Kd1 of 0.03 µM and a Kd2 of 8 µM.
For `CC(=O)OCC[N+](C)(C)C`, in assay [1], the Kd1 is 0.12 µM and the Kd2 is 2.3 µM. For the same molecule, in assay [2], the Kd1 stood at 0.18 µM and the Kd2 came out at 3 µM.
Take `COc1ccc(Cc2nccc3cc(OC)c(OC)cc23)cc1OC`: in assay [1], the Bmax worked out at 0.27 µM and the Kd1 stood at 1.7 µM. Also, in assay [2], the Bmax stood at 2.07 µM; the Kd1 came out at 2.4 µM; the Kd2 is 31 µM and 29 µM.
